For 8 cell lines, relative viability results are on record in the supplement of paper PMC10307832.

Common to all, as to assay: relative viability (nuclei count vs DMSO), 5 days (fraction); higher = more cells survive
Compound in assay [1]: C(C(=O)C(=O)O)Br [Bromopyruvate] + CC(C)C[C@H](NC(=O)[C@H](Cc1ccccc1)NC(=O)c1cnccn1)B(O)O [Bortezomib] (partner 0.002 µM)
The procedure, abridged: (§1)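 Five library-drug doses in √10 steps were combined with a fixed anchor-drug dose, or a single drug was given alone, by pin tool to lung cancer cell lines in 1536-well plates the day after seeding. Nuclei were stained and counted after 5 days. Relative viability is the nuclei count in treated wells over that in vehicle wells, taken as the median of duplicate plates.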

Compound in assay [2]: C(C(=O)C(=O)O)Br [Bromopyruvate] + CS(=O)(=O)N1CCN(Cc2cc3nc(-c4cccc5[nH]ncc45)nc(N4CCOCC4)c3s2)CC1 [Pictilisib] (partner 1 µM)
The procedure, abridged: as §1

Compound in the assay “Bromopyruvate + Olaparib”: C(C(=O)C(=O)O)Br [Bromopyruvate] + O=C(c1cc(Cc2n[nH]c(=O)c3ccccc23)ccc1F)N1CCN(C(=O)C2CC2)CC1 [Olaparib] (partner 8 µM)
The procedure, abridged: as §1

Compound in the assay “Bicalutamide + Dasatinib”: CC(O)(CS(=O)(=O)c1ccc(F)cc1)C(=O)Nc1ccc(C#N)c(C(F)(F)F)c1 [Bicalutamide] + Cc1nc(Nc2ncc(C(=O)Nc3c(C)cccc3Cl)s2)cc(N2CCN(CCO)CC2)n1 [Dasatinib] (partner 0.075 µM)
Put shortly:
as §1

For 201T, the relative viability worked out at 1.11 in assay [1] (first compound 1 µM); 1.08 in assay [1] (first compound 3.162 µM); 1.11 in assay [1] (first compound 10 µM); 1.1 in assay [1] (first compound 31.62 µM); 1.03 in assay [1] (first compound 100 µM); 0.724 in assay [2] (first compound 1 µM). Besides, the relative viability is 0.692 in assay [2] (first compound 3.162 µM); 0.626 in assay [2] (first compound 10 µM); 0.683 in assay [2] (first compound 31.62 µM); 0.7 in assay [2] (first compound 100 µM); 0.862 with Bromopyruvate + Olaparib (first compound 1 µM); 0.824 with Bromopyruvate + Olaparib (first compound 3.162 µM). The relative viability was determined as 0.86 with Bromopyruvate + Olaparib (first compound 10 µM); 0.84 in the assay with Bromopyruvate + Olaparib (first compound 31.62 µM); 0.88 with Bromopyruvate + Olaparib (first compound 100 µM); 0.575 with Bicalutamide + Dasatinib (first compound 0.08 µM); 0.566 with Bicalutamide + Dasatinib (first compound 0.253 µM); 0.581 with Bicalutamide + Dasatinib (first compound 0.8 µM). The relative viability with Bicalutamide + Dasatinib (first compound 2.53 µM) turned out to be 0.57.
A549: the relative viability came to 0.479 in assay [2] (first compound 1 µM); 0.629 in assay [2] (first compound 3.162 µM); 0.489 in assay [2] (first compound 10 µM); 0.494 in assay [2] (first compound 31.62 µM); 0.6 in assay [2] (first compound 100 µM); 0.286 in the assay with Bromopyruvate + Olaparib (first compound 3.162 µM). Also, the figures for the relative viability with Bromopyruvate + Olaparib (first compound 10 µM), with Bromopyruvate + Olaparib (first compound 31.62 µM) and in the assay with Bromopyruvate + Olaparib (first compound 100 µM) were 0.403, 0.356 and 0.3, respectively.
Consider A-427, for which the relative viability in assay [1] (first compound 1 µM) was 0.999; in assay [1] (first compound 3.162 µM), 1.02; in assay [1] (first compound 10 µM) it was 0.931; in assay [1] (first compound 31.62 µM), 1.05; in assay [1] (first compound 100 µM) it was 1.06; in assay [2] (first compound 1 µM) it was 0.678. The relative viability in assay [2] (first compound 3.162 µM) stood at 0.809; in assay [2] (first compound 10 µM), 0.483; in assay [2] (first compound 31.62 µM) it was 0.746; in assay [2] (first compound 100 µM), 0.718; in the assay with Bromopyruvate + Olaparib (first compound 1 µM), 0.664; in the assay with Bromopyruvate + Olaparib (first compound 3.162 µM), 0.758. The relative viability with Bromopyruvate + Olaparib (first compound 10 µM) was 0.782; in the assay with Bromopyruvate + Olaparib (first compound 31.62 µM), 0.693; with Bromopyruvate + Olaparib (first compound 100 µM), 0.774; with Bicalutamide + Dasatinib (first compound 0.08 µM), 0.643; with Bicalutamide + Dasatinib (first compound 0.253 µM) it was 0.631; with Bicalutamide + Dasatinib (first compound 0.8 µM), 0.791. Also, the relative viability with Bicalutamide + Dasatinib (first compound 2.53 µM) came out at 0.607.
On to ABC-1, for which the relative viability worked out at 0.342 in assay [1] (first compound 1 µM); 0.31 in assay [1] (first compound 3.162 µM); 0.347 in assay [1] (first compound 31.62 µM); 0.332 in assay [1] (first compound 100 µM); 0.573 in assay [2] (first compound 1 µM); 0.881 in assay [2] (first compound 3.162 µM). The relative viability in assay [2] (first compound 31.62 µM) stood at 0.849; in assay [2] (first compound 100 µM), 0.686; with Bromopyruvate + Olaparib (first compound 1 µM), 0.775; with Bromopyruvate + Olaparib (first compound 100 µM) it was 0.566; with Bicalutamide + Dasatinib (first compound 0.08 µM) it was 0.658; with Bicalutamide + Dasatinib (first compound 0.253 µM) it was 0.476. Besides, the figures for the relative viability with Bicalutamide + Dasatinib (first compound 0.8 µM) and with Bicalutamide + Dasatinib (first compound 2.53 µM) were 0.725 and 0.475, respectively.
As for BEN, the relative viability was found to be 0.897 in assay [1] (first compound 1 µM); 0.724 in assay [1] (first compound 3.162 µM); 0.78 in assay [1] (first compound 10 µM); 0.836 in assay [1] (first compound 31.62 µM); 0.682 in assay [1] (first compound 100 µM); 0.64 in assay [2] (first compound 1 µM). Moreover, the relative viability came to 0.505 in assay [2] (first compound 3.162 µM); 0.63 in assay [2] (first compound 10 µM); 0.552 in assay [2] (first compound 31.62 µM); 0.508 in assay [2] (first compound 100 µM); 0.96 in the assay with Bromopyruvate + Olaparib (first compound 1 µM); 0.994 with Bromopyruvate + Olaparib (first compound 3.162 µM). Further, the relative viability in the assay with Bromopyruvate + Olaparib (first compound 10 µM) came to 1.46; with Bromopyruvate + Olaparib (first compound 31.62 µM) it was 1.03; with Bromopyruvate + Olaparib (first compound 100 µM), 0.99; with Bicalutamide + Dasatinib (first compound 0.08 µM) it was 0.355; in the assay with Bicalutamide + Dasatinib (first compound 0.253 µM), 0.316; in the assay with Bicalutamide + Dasatinib (first compound 0.8 µM), 0.393. The relative viability with Bicalutamide + Dasatinib (first compound 2.53 µM) amounted to 0.38.
As for CAL-12T, the relative viability came to 1.04 in assay [1] (first compound 1 µM); 1.08 in assay [1] (first compound 3.162 µM); 0.904 in assay [1] (first compound 10 µM); 0.977 in assay [1] (first compound 31.62 µM); 0.934 in assay [1] (first compound 100 µM); 0.431 in assay [2] (first compound 1 µM). Besides, the relative viability in assay [2] (first compound 3.162 µM) was 0.394; in assay [2] (first compound 10 µM), 0.534; in assay [2] (first compound 31.62 µM) it was 0.309; in assay [2] (first compound 100 µM) it was 0.569; with Bromopyruvate + Olaparib (first compound 1 µM) it was 0.654; with Bromopyruvate + Olaparib (first compound 3.162 µM) it was 0.661. Further, the relative viability in the assay with Bromopyruvate + Olaparib (first compound 10 µM) came to 0.697; with Bromopyruvate + Olaparib (first compound 31.62 µM), 0.725; with Bromopyruvate + Olaparib (first compound 100 µM) it was 0.65; with Bicalutamide + Dasatinib (first compound 0.08 µM), 0.492; with Bicalutamide + Dasatinib (first compound 0.253 µM), 0.325; with Bicalutamide + Dasatinib (first compound 0.8 µM), 0.445. Besides, the relative viability with Bicalutamide + Dasatinib (first compound 2.53 µM) worked out at 0.256.
Turning to COR-L23, the relative viability stood at 0.943 in assay [1] (first compound 1 µM); 0.939 in assay [1] (first compound 3.162 µM); 1.12 in assay [1] (first compound 10 µM); 0.975 in assay [1] (first compound 31.62 µM); 0.486 in assay [1] (first compound 100 µM); 0.763 in assay [2] (first compound 1 µM). Besides, the relative viability worked out at 0.772 in assay [2] (first compound 3.162 µM); 0.98 in assay [2] (first compound 10 µM); 0.673 in assay [2] (first compound 31.62 µM); 0.524 in assay [2] (first compound 100 µM); 0.398 with Bromopyruvate + Olaparib (first compound 1 µM); 0.342 with Bromopyruvate + Olaparib (first compound 3.162 µM). Also, the relative viability in the assay with Bromopyruvate + Olaparib (first compound 10 µM) was 0.349; in the assay with Bromopyruvate + Olaparib (first compound 31.62 µM) it was 0.319; with Bromopyruvate + Olaparib (first compound 100 µM), 0.129; with Bicalutamide + Dasatinib (first compound 0.08 µM), 0.628; in the assay with Bicalutamide + Dasatinib (first compound 0.253 µM) it was 0.513; in the assay with Bicalutamide + Dasatinib (first compound 0.8 µM), 0.407. The relative viability in the assay with Bicalutamide + Dasatinib (first compound 2.53 µM) came to 0.476.
Turning to COR-L 105, the relative viability in assay [1] (first compound 1 µM) was 0.559; in assay [1] (first compound 3.162 µM) it was 0.876; in assay [1] (first compound 10 µM), 0.526; in assay [1] (first compound 31.62 µM), 0.769; in assay [1] (first compound 100 µM), 0.566; in assay [2] (first compound 1 µM), 0.524. Further, the relative viability turned out to be 0.371 in assay [2] (first compound 3.162 µM); 0.361 in assay [2] (first compound 10 µM); 0.434 in assay [2] (first compound 31.62 µM); 0.379 in assay [2] (first compound 100 µM); 0.771 in the assay with Bromopyruvate + Olaparib (first compound 1 µM); 0.71 with Bromopyruvate + Olaparib (first compound 3.162 µM). Further, the relative viability with Bromopyruvate + Olaparib (first compound 10 µM) came out at 0.642; in the assay with Bromopyruvate + Olaparib (first compound 31.62 µM), 0.504; with Bromopyruvate + Olaparib (first compound 100 µM) it was 0.429; in the assay with Bicalutamide + Dasatinib (first compound 0.08 µM), 0.325; with Bicalutamide + Dasatinib (first compound 0.253 µM), 0.257; with Bicalutamide + Dasatinib (first compound 0.8 µM), 0.325. Also, the relative viability with Bicalutamide + Dasatinib (first compound 2.53 µM) stood at 0.285.
